Laboratory results reported in ChEMBL document CHEMBL5528065, “Structure-Activity Relationship of a Pyrrole Based Series of PfPKG Inhibitors as Anti-Malarials” (J Med Chem, 2024).

Experiments:
[1] = Inhibition of recombinant Plasmodium falciparum PKG using FAM-PKA peptide as fluorescent substrate preincubated for 15 mins followed by substrate addition measured after 1 hr by fluorescence polarization based IMAP assay
Plasmodium falciparum [2] = experiment: Antimalarial activity against drug-sensitive Plasmodium falciparum 3D7 infected in human erythrocytes assessed as reduction in parasitemia incubated for 72 hrs by SYBR green I and Mitotracker deep red dye based flow cytometric analysis; type: functional, organism-based
Plasmodium falciparum [3] = experiment: Antimalarial activity against Plasmodium falciparum expressing PKG T618Q mutant infected in human erythrocytes assessed as reduction in parasitemia incubated for 72 hrs by SYBR green I and Mitotracker deep red dye based flow cytometric analysis; type: functional, organism-based
Plasmodium berghei = experiment: Antimalarial activity against Plasmodium berghei sporozoites expressing Luciferase infected in human HepG2 cells assessed as reduction in parasite growth incubated for 48 hrs by ONE-Glo luciferase assay; type: functional, organism-based
Homo sapiens = organism: Homo sapiens; experiment: Inhibition of human PKG using FAM-IP3R peptide as fluorescent substrate at 10 uM preincubated for 15 mins followed by substrate addition measured after 1 hr by fluorescence polarization based IMAP assay relative to control; settings: time 75.0 min
[4] = Aqueous solubility of compound in PBS at pH 7.4 incubated for 90 mins by UV spectrophotometric analysis; type: physicochemical
[5] = Half life in CD-1 mouse liver microsomes in presence of NADPH incubated for 60 mins by LC-MS/MS analysis; type: ADME, Microsome
[6] = Intrinsic clearance in CD-1 mouse liver microsomes in presence of NADPH incubated for 60 mins by LC-MS/MS analysis; type: ADME, Microsome; settings: read-out: CLH
[7] = Stability in CD-1 mouse liver microsomes assessed as remaining compound in absence of NADPH incubated for 60 mins by LC-MS/MS analysis; type: ADME, Microsome; settings: read-out: Stability
[8] = Half life in human liver microsomes in presence of NADPH incubated for 60 mins by LC-MS/MS analysis; type: ADME, Microsome
[9] = Intrinsic clearance in human liver microsomes in presence of NADPH incubated for 60 mins by LC-MS/MS analysis; type: ADME, Microsome; settings: read-out: CLH
[10] = Stability in human liver microsomes assessed as remaining compound in absence of NADPH incubated for 60 mins by LC-MS/MS analysis; type: ADME, Microsome; settings: read-out: Stability
[11] = Protein binding in C57BL/6 mouse plasma assessed as unbound fraction incubated for 22 hrs by LC-MS/MS analysis; type: ADME, cell-free
[12] = Protein binding in CD-1 mouse liver microsomes assessed as unbound fraction incubated for 17 hrs by LC-MS analysis; type: ADME, Microsome
Cytochrome P450 3A4 = Cytochrome P450 3A4 (Homo sapiens, UniProt P08684); experiment: Inhibition of human CYP3A4 expressed in baculovirus infected insect cells using midazolam as substrate incubated for 30 mins in presence of NADPH by UPLC-MS analysis; type: ADME
Cytochrome P450 3A4, sequence (P08684 whole entry): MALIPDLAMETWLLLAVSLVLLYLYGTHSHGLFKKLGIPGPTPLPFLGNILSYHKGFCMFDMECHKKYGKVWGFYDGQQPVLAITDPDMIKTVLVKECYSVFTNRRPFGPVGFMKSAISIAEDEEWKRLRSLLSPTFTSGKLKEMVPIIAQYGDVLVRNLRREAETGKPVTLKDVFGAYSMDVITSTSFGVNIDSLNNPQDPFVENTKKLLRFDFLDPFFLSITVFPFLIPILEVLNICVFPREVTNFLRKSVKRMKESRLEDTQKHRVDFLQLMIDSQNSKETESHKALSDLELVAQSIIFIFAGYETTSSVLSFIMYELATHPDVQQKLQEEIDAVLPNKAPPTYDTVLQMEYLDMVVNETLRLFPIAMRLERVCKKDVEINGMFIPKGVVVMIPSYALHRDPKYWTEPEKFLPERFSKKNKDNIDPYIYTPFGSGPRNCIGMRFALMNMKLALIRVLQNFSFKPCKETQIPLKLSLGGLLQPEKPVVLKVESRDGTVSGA

Cytochrome P450 2D6 = Cytochrome P450 2D6 (Homo sapiens, UniProt P10635); experiment: Inhibition of human CYP2D6 expressed in baculovirus infected insect cells using AMMC as substrate incubated for 40 mins in presence of NADPH by UPLC-MS analysis; type: ADME
Cytochrome P450 2D6, sequence (P10635 whole entry): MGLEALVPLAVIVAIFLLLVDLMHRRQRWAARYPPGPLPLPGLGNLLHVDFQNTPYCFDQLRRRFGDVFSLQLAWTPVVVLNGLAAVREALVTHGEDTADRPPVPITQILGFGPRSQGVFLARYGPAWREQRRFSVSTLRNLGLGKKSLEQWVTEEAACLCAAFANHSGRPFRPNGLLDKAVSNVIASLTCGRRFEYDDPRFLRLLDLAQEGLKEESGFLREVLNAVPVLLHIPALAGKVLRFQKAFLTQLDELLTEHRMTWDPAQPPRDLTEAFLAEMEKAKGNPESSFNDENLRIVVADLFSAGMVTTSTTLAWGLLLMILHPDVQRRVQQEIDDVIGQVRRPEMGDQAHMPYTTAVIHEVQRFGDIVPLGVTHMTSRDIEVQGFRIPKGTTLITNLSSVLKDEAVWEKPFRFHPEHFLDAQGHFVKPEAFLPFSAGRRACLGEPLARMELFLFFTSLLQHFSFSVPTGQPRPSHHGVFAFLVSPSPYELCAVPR

Cytochrome P450 2C9 = Cytochrome P450 2C9 (Homo sapiens, UniProt P11712); experiment: Inhibition of human CYP2C9 expressed in baculovirus infected insect cells using MFC as substrate incubated for 30 mins in presence of NADPH by UPLC-MS analysis; type: ADME
Cytochrome P450 2C9, sequence (P11712 whole entry): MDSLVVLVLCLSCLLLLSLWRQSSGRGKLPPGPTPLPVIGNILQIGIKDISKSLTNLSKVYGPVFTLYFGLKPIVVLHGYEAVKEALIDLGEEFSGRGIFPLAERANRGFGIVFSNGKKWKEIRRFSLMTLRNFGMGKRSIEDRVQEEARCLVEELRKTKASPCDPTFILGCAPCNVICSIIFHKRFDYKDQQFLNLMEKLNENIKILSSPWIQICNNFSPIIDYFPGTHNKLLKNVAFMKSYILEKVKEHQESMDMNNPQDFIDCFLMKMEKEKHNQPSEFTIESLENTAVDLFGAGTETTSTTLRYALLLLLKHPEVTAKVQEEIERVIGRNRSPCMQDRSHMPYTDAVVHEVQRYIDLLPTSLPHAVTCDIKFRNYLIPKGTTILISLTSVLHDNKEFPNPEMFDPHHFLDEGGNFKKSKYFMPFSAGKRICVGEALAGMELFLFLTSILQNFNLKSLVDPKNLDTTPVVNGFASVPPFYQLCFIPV

[13] = target: Voltage-gated inwardly rectifying potassium channel KCNH2 (Homo sapiens, UniProt Q12809); experiment: Inhibition of hERG expressed in HEK293 cells incubated for 30 mins by FluxOR dye based fluorescence analysis; type: toxicity, cell-based
Voltage-gated inwardly rectifying potassium channel KCNH2, sequence (Q12809 whole entry): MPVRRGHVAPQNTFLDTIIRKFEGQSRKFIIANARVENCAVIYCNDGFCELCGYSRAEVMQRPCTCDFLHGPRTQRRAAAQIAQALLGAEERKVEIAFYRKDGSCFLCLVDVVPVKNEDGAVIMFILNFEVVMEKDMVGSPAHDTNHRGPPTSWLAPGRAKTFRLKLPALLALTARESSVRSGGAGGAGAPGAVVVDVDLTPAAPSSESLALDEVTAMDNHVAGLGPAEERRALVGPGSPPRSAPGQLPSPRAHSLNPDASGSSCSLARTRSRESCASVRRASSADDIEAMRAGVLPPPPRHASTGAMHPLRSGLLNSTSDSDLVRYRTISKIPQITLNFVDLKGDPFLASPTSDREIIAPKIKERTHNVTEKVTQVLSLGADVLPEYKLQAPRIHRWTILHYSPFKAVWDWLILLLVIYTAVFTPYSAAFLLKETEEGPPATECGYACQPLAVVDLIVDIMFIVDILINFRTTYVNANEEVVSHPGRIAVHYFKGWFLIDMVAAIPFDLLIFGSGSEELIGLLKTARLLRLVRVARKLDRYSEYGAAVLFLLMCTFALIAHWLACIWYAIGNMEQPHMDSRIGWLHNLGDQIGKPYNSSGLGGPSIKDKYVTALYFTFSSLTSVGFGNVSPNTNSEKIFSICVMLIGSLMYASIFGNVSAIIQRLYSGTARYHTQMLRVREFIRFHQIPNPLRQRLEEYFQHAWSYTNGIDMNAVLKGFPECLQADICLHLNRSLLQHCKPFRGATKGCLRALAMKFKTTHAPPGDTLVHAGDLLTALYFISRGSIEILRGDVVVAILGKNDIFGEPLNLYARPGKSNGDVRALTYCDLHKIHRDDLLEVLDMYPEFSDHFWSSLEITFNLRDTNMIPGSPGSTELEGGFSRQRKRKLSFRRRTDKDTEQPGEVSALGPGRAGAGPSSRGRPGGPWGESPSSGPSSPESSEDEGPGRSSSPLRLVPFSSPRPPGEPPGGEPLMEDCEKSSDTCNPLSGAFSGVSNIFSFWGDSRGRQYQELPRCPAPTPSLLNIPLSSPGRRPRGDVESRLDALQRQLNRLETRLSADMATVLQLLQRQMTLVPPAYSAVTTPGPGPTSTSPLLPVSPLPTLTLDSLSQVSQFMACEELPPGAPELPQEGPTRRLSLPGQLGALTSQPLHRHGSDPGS

[14] = Apparent permeability in human Caco-2 cells incubated for 120 mins by LC-MS/MS analysis; type: ADME, cell-based
[15] = Efflux ratio of apparent permeability from basolateral to apical side over apical to basolateral side in human Caco-2 cells incubated for 120 mins by LC-MS/MS analysis; type: ADME, cell-based
[16] = Plasmodium falciparum, 3D7, 72 h
[17] = Plasmodium berghei, HepG2, 48 h

| SMILES | IC50 [1] | pIC50 [1] | EC50 (Plasmodium falciparum [2]) | EC50 (Plasmodium falciparum [3]) | inhibition (Homo sapiens) | solubility at 1.5 h [4] | half-life [5] | microsomal CLint [6] | remaining at 1 h [7] | half-life [8] | microsomal CLint [9] | remaining at 1 h [10] | fraction unbound at 22 h [11] | fraction unbound at 17 h [12] | IC50 (Cytochrome P450 3A4) | IC50 (Cytochrome P450 2D6) | IC50 (Cytochrome P450 2C9) | IC50 [13] | Papp at 2 h [14] | efflux ratio at 2 h [15] | further results |
| --- | --- | --- | --- | --- | --- | --- | --- | --- | --- | --- | --- | --- | --- | --- | --- | --- | --- | --- | --- | --- | --- |
| CC1CN(C)CC[C@H]1c1cc(-c2ccncc2)c(-c2ccc(F)cc2)[nH]1.Cl.Cl (single isomer, unassigned) | 14 nM | 7.85 | 170 nM | 900 nM | 0.4% | 190 µM | 28.2 min | 49.2 µL/min/mg | 104% | 57.5 min | 24.1 µL/min/mg | 101% | 0.115 | 0.587 | > 10000 nM | 5670 nM | > 10000 nM | > 10000 nM | 17 ×10⁻⁶ cm/s | 1.27 | EC50 (Plasmodium berghei): 350 nM |
| C[C@H]1CN(C)CC[C@@H]1c1cc(-c2ccncc2)c(-c2ccc(F)cc2)[nH]1.Cl.Cl | 14 nM | 7.87 | – | – | 30% | 187 µM | > 60 min | < 23 µL/min/mg | 99% | > 60 min | < 23 µL/min/mg | 100% | 0.122 | 0.63 | 4780 nM | 6150 nM | > 10000 nM | > 10000 nM | 22.6 ×10⁻⁶ cm/s | 1.52 | EC50 (Plasmodium falciparum [2]; [16]): 80 nM; EC50 (Plasmodium falciparum [3]; Plasmodium falciparum, 72 h): 780 nM; EC50 (Plasmodium berghei; [17]): 170 nM |
| C[C@@H]1CN(C)CCC1c1cc(-c2ccncc2)c(-c2ccc(F)cc2)[nH]1.Cl.Cl (single isomer, unassigned) | 9 nM | 8.05 | 50 nM | 1220 nM | 45% | 176 µM | 31.2 min | 44.5 µL/min/mg | 103% | > 60 min | < 23 µL/min/mg | 98% | 0.119 | 0.518 | 7480 nM | 5740 nM | > 10000 nM | > 10000 nM | 22.1 ×10⁻⁶ cm/s | 1.59 | EC50 (Plasmodium berghei): 60 nM |
| C[C@@H]1CN(C)CC[C@@H]1c1cc(-c2ccncc2)c(-c2ccc(F)cc2)[nH]1.Cl.Cl | 13 nM | 7.89 | – | – | -0.3% | 181 µM | > 60 min | < 23 µL/min/mg | 103% | 35.7 min | 38.8 µL/min/mg | 99% | 0.155 | 0.502 | > 10000 nM | > 10000 nM | > 10000 nM | > 10000 nM | 20.1 ×10⁻⁶ cm/s | 1 | EC50 (Plasmodium falciparum [2]; [16]): 50 nM; EC50 (Plasmodium falciparum [3]; Plasmodium falciparum, 72 h): 760 nM; EC50 (Plasmodium berghei; [17]): 70 nM |
